From PubChem BioAssay AID652247 (Sanford-Burnham Center for Chemical Genomics, 2013)
Active and inactive are the calls of the source. How the calls were made is not given here.

Target: NEDD8-conjugating enzyme Ubc12 (Homo sapiens) + NEDD8-activating enzyme E1 regulatory subunit (Homo sapiens) (UniProt P61081+Q13564)
Test: inhibitors of CUL1 neddylation, potency, dose response, biochemical, TR-FRET (AID 652247)
Details: in vitro CUL1 neddylation

Chain of NEDD8-conjugating enzyme Ubc12 (Homo sapiens) + NEDD8-activating enzyme E1 regulatory subunit (Homo sapiens) (P61081 whole entry, looked up): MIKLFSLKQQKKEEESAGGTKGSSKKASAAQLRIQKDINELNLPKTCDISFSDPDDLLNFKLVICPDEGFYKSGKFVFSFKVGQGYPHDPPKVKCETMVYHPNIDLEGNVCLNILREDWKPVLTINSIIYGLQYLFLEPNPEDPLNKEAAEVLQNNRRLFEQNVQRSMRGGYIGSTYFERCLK
Chain of NEDD8-conjugating enzyme Ubc12 (Homo sapiens) + NEDD8-activating enzyme E1 regulatory subunit (Homo sapiens) (Q13564 whole entry, looked up): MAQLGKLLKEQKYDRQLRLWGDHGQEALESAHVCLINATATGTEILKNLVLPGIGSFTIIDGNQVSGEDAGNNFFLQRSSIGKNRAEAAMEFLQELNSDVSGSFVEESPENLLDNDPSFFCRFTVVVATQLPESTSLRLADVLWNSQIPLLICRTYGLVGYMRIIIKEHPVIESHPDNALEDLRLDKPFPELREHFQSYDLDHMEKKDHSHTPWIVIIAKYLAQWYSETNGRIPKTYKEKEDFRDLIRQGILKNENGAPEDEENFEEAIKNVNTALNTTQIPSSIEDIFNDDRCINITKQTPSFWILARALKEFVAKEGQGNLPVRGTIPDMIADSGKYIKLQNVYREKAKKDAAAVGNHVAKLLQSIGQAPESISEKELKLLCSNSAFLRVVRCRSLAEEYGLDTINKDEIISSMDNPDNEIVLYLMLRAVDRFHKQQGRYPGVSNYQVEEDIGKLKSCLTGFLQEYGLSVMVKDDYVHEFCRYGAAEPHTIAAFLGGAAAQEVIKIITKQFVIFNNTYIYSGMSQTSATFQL

Row | SMILES | IC50
1 | COc1ccc(-c2cc3nc(NCCN4CCCC4)n(C)c(=O)c3s2)cc1OC | inactive
2 | CC1CCN(C(=O)CN2c3cccc4cccc(c34)S2(=O)=O)CC1 | inactive
3 | Cc1cc(NC(=O)COC(=O)c2nccnc2N)n(-c2ccccc2)n1 | 13.2 µM
4 | COC(=O)C1=C(C)NC2=C(C(=O)C(C(=O)OC)C(c3ccc(OC)cc3)C2)C1c1ccccn1 (stereo not given) | inactive
5 | Cc1ccc(C)c(OCC(=O)N/N=C/c2ccc(N3CCOCC3)cc2)c1 | inactive
6 | COCCCNC(=O)/C(C#N)=C/c1c(N2CCN(c3ccccc3)CC2)nc2ccccn2c1=O | inactive
7 | CC1(C)CC(NC(=O)COc2ccc3c4c(c(=O)oc3c2)CCCC4)CC(C)(C)N1 | inactive
8 | O=C(Nc1cccnc1Cl)c1cc(-c2cccc(O)c2)on1 | 13.9 µM
9 | CC1CCN(C(=O)Nc2ccc3nsnc3c2)CC1 | inactive
10 | COc1ccc2cc3cc(C(=O)NCCc4ccc(OC)c(OC)c4)oc3nc2c1 | 19.7 µM
11 | Cn1c(=O)c(-c2ccccc2)nc2ccccc21 | inactive
12 | COc1ccc(-c2cc3ccc(OCc4nn[nH]n4)cc3oc2=O)cc1OC | 6.88 µM
13 | O=C(Nc1ccc2c(c1)OCO2)c1cc(-c2ccc(O)cc2)on1 | inactive
14 | COc1cc2sc(-c3ccc(S(C)(=O)=O)cc3)c(C#CCO)c2cc1OC | inactive
15 | CC(=O)N1N=C2/C(=C/c3ccccc3)CCCC2C1c1ccccc1 (stereo not given) | inactive
16 | C=CCNC(=O)c1ccc2c3n(nc2c1)-c1ccc(C)cc1CO3 | inactive
17 | O=C(O)Cn1c(=O)c(-c2ccccc2)nc2ccccc21 | inactive
18 | Cc1ccc(C(C(=O)NCC2CCCO2)N(C(=O)c2snc(C(N)=O)c2N)c2ccc(F)cc2)o1 (stereo not given) | > 100 µM (inactive)
19 | Cc1cc(C)cc(N(CC(=O)NC2CCCC2)C(=O)C2(C)CC(=O)N=C3C=CC=CN32)c1 (stereo not given) | inactive
20 | COC(=O)c1sc2nc3c(cc2c1N)COC(C)(C)C3 | inactive
21 | CCOC(=O)c1cc2c(=O)n3ccccc3nc2n(CCOC)c1=NC(=O)c1ccncc1 | inactive
22 | CN(C)c1ccc(-c2nc3cnccn3c2Nc2ccc3c(c2)OCCO3)cc1 | inactive
23 | COc1ccc(-c2cn3cccnc3n2)cc1NC(=O)c1cccs1 | inactive
24 | COc1ccc(Cl)cc1NC(=O)Cn1nnc(C(=O)NCc2ccc3c(c2)OCO3)c1N | 10.4 µM
25 | CN=Cc1c(NC)nc2c(C)cccn2c1=O | inactive
26 | CC1CCCC(C)N1C(=O)CN1c2cccc3cccc(c23)S1(=O)=O (stereo not given) | inactive
27 | COCCNC(=O)c1ccc2c3n(nc2c1)-c1ccc(C)cc1CO3 | inactive

Row | SMILES | IC50
28 | CCN(CC)c1ccc(/C=N/NC(=O)Cc2ccc(OC)c(OC)c2)cc1 | inactive
29 | O=C(O)c1sc2cc(C(F)(F)F)cnc2c1-c1cccs1 | inactive
30 | CCCCN(C)C(=O)c1cc2cc3ccc(OC)cc3nc2o1 | inactive
31 | CCOC(=O)c1cc2c(=O)n3ccccc3nc2n(C(C)C)c1=NC(=O)c1ccncc1 | inactive
32 | COc1ccc(-c2cc(C(=O)N3CCN(c4ccccc4O)CC3)c3ccccc3n2)cc1OC | inactive
33 | COc1ccc(-n2cc(CNCc3cnc4ccccn34)c(-c3cccc(F)c3)n2)cc1 | inactive
34 | Cc1ccc2cc3cc(C(=O)NCCCN4CCc5ccccc5C4)oc3nc2c1 | 10.6 µM
35 | COCCNC(=O)COC(=O)c1cc(-c2ccc(OC)cc2)nc2ccccc12 | inactive
36 | N#Cc1c2c(c(NCCOCCO)n3c1nc1ccccc13)CCCC2 | inactive
37 | COc1ccc(C(CC(=O)N2CCCCC2)c2c(OC)cc(OC)c3ccc(=O)oc23)cc1 (stereo not given) | inactive
38 | CCN(/N=C/c1ccc(N(C)C)cc1)c1nc2ccccc2[nH]1 | inactive
39 | COc1cc(/C=N/Nc2nc3ccccc3[nH]2)cc(Br)c1OCC(=O)N(C)C | inactive
40 | COCCN1C=C(C(=O)OC)C(c2ccc3c(c2)OCO3)C(C(=O)OC)=C1 | inactive
41 | CSc1cnc2c(=O)n(C)c(=O)[nH]c2n1 | inactive
42 | CCC(=O)Nc1nnc(/C=C/c2ccccc2)s1 | > 100 µM (inactive)
43 | Cc1ccc(Cn2c(=N)c(C(=O)NCCN3CCOCC3)cc3c(=O)n4ccccc4nc32)cc1 | 17.5 µM
44 | Cc1ccc(-n2c3nc(=O)n(C)c(=O)c-3cc3ccccc32)cc1 | 17.9 µM
45 | CCOc1ccc2[nH]c(C(=O)N/N=C/c3cccc(OC)c3OC)cc2c1 | inactive
46 | COc1ccccc1N1CCN(C(=O)c2cc3c(=O)n4cccc(C)c4nc3s2)CC1 | inactive
47 | C(=C\c1ccc2nncn2c1)/c1ccccc1 | inactive
48 | C=CCN1C(=O)C(CC(=O)O)S/C1=N/N=C/c1ccc(N(CC)CC)cc1 (stereo not given) | inactive
49 | COCc1cc(C)nc2sc(C(=O)Nc3ccc(OC)cc3)c(N)c12 | > 100 µM (inactive)
50 | CC(NC(=O)C1=CC=CN2CCS(=O)(=O)N=C12)c1ccc(Cl)c(Cl)c1 (stereo not given) | inactive
51 | CCN(CC)c1ccc(/C=N/NC(=O)CC(C)C)cc1 | inactive
52 | CN1CCOc2c1cnn(CCO)c2=O | inactive
53 | COc1ccc(OC)c(C=NNC(=O)c2ccccc2NS(=O)(=O)c2cccs2)c1 | inactive
54 | N#Cc1ccc(/C=C2\CCn3c2nc2cc(C(=O)O)ccc2c3=O)cc1 | 14.5 µM

Row | SMILES | IC50
55 | COc1cc(C=NNC(=O)c2ccc(NS(=O)(=O)c3cccs3)cc2)cc(Br)c1O | inactive
56 | CCOc1ccccc1NC(=O)CN1c2cccc3cccc(c23)S1(=O)=O | inactive
57 | COCc1cc(C)nc(NC2CC(C)(C)NC(C)(C)C2)c1C#N | inactive
58 | CC(C(=O)NCC1CCCO1)N(C(=O)c1snc(C(N)=O)c1N)c1cccc(F)c1 (stereo not given) | inactive
59 | CCCN(CC(=O)Nc1ccccc1C)C(=O)c1ccc(-c2ccc(C(C)=O)cc2)o1 | 14.7 µM
60 | COCCNc1c2c(c(C#N)c3nc4ccccc4n13)CCCC2 | inactive
61 | CCOc1cc(/C=C/C(=O)Nc2ccc(C(=O)NCCN(CC)CC)cc2)ccc1OCC(C)C | inactive
62 | Cc1ccc(-c2cc(C(=O)NCCCN3CCOCC3)c3ccccc3n2)cc1 | inactive
63 | O=C(CSc1cccc2cccnc12)Nc1cc(C(=O)O)cc(C(=O)O)c1 | inactive
64 | CCN(CC)CCNC(=O)Cn1c(-c2ccccn2)nc2ccccc21 | inactive
65 | Cn1ncc2cc3c(Nc4ccc(Cl)cc4)cccc3nc21 | inactive
66 | C=CCNC(=S)N/N=C/c1ccc(N(CC)Cc2ccccc2)cc1 | inactive
67 | CSc1ccc(/C=N/n2nnnc2N)cc1 | inactive
68 | Cc1cc(NS(=O)(=O)c2ccc(NC(=O)c3cc4c(=O)n5ccccc5nc4s3)cc2)nc(C)n1 | 18 µM
69 | COc1ccc(C(C(=O)NCC2CCCO2)N(C(=O)c2snc(C(N)=O)c2N)c2ccccc2)cc1OC (stereo not given) | inactive
70 | COc1ccc2cc(C(=O)N/N=C/c3cc(OC)c(OC)c(OC)c3)[nH]c2c1 | inactive
71 | Cc1ccc2nc(-c3ccc(NC(=O)COCC(=O)O)cc3)sc2c1 | > 100 µM (inactive)
72 | COc1cc(OC)cc(-c2oc3cccnc3c2C#CCCO)c1 | inactive
73 | O=C(NC1CCCCC1)C(c1ccncc1)n1c(=O)c(-c2ccccc2)nc2ccccc21 (stereo not given) | inactive
74 | CS(=O)(=O)N(CC(=O)N/N=C/c1cccc2c1OCCO2)c1ccccc1Br | inactive
75 | CCOC(=O)CNC(=O)c1sc(NC(=O)c2ccccc2F)nc1C | inactive
76 | CCCCc1c(O)n2c(nc3ccccc32)[nH]c1=O | inactive
77 | COc1ccc(CCNc2oc(-c3ccco3)nc2C#N)cc1 | inactive
78 | O=C(O)c1ccc2c(=O)n3c(nc2c1)/C(=C/c1ccc(C(F)(F)F)cc1)CC3 | inactive
79 | COC(=O)c1ccc2[nH]c3c(c2c1)CC(C)CC3 (stereo not given) | inactive
80 | S=c1[nH]c2nc(Cl)c(Cl)nc2[nH]1 | inactive
81 | C[n+]1ccc(-c2ccccc2)c2ccccc21 | > 100 µM (inactive)

Row | SMILES | IC50
82 | O=C(NCCc1ccc(Cl)cc1Cl)C1=CC=CN2CCS(=O)(=O)N=C12 | inactive
83 | COc1ccc(/C=C/c2ccc(=O)n(Cc3ccccc3)n2)cc1 | > 100 µM (inactive)
84 | Cc1cccn2c(=O)c3cc(C(=O)N4CCN(Cc5ccccc5)CC4)sc3nc12 | 17.9 µM
85 | CN(C)c1ccc(/C=N/NC(=O)C2CC2c2ccccc2)cc1 (stereo not given) | inactive
86 | Cn1nc(/C=C/c2ccccc2)ccc1=O | inactive
87 | COc1ccc2sc(-c3ccc(SC)cc3)c(C#CCO)c2c1 | inactive
88 | COCCNC(=O)CSc1ccc(-c2nc3ccccc3[nH]2)cn1 | inactive
89 | Cc1c(C(C)NC(=O)c2cc(COc3cccc4cnccc34)on2)cnn1C (stereo not given) | inactive
90 | COc1ccc(C(=O)n2cc(C(=O)c3cc(C)ccc3O)cn2)cc1OC | inactive
91 | c1cnc2cc(-c3ccsc3)ncc2c1 | inactive
92 | Cc1ccc2oc(-c3ccco3)cc(=O)c2c1 | inactive
93 | Nc1cccc2c(=O)[nH][nH]c(=O)c12 | inactive
94 | Cc1cc(C)n2nc(-c3cnn(C)c3C(F)(F)F)cc2n1 | inactive
95 | CCOc1ccc2[nH]c3ncccc3c(=O)c2c1 | inactive
96 | O=c1c[n+]([O-])c2ccccc2n1OCc1c(F)cccc1F | inactive
97 | CC(C)(C)c1ccc(/C=C2\CCn3c2nc2cc(C(=O)O)ccc2c3=O)cc1 | inactive
98 | COc1ccc(-c2cc(C(=O)N(C)CC(=O)Nc3ccccc3Cl)c3ccccc3n2)cc1OC | inactive
99 | Cc1nn(C)cc1CN(C)C(=O)c1cc2nc(-c3ccco3)cc(C(F)(F)F)n2n1 | inactive
100 | Cc1csc(NC(=O)c2cc(=O)[nH]c3ccc(S(=O)(=O)N4CCOCC4)cc23)n1 | inactive
101 | CN(C)CCn1c(SCc2ccccc2C#N)nc2c(sc3ccccc32)c1=O | inactive
102 | CN(C)c1ccc(/C=N/NC(=O)CCc2nc3ccccc3[nH]2)cc1 | inactive
103 | CCOCCCn1c(=NC(=O)c2cccnc2)c(C(=O)OCC)cc2c(=O)n3ccccc3nc21 | inactive
104 | CC(=O)Nc1nc(C)c(-c2csc(Nc3ccc(S(N)(=O)=O)cc3)n2)s1 | 11.7 µM
105 | COc1ccc(Nc2cc3n(c(=O)n2)CCc2cc(OC)c(OC)cc2-3)cc1 | inactive
